Laboratory results: patent publication EP1170007A1, “REMEDIES” (Takara Shuzo Co, Ltd., priority 1999, dated 2000)

Tests used:
[1] = test system: mouse; assay: Single oral dose toxicity in mouse; assay type: in vivo
[2] = test system: human insulin-like growth factor-1 (h-IGF-1) production in Hs68 cells; assay: Enhancement of h-IGF-1 production in Hs68 cells (ELISA); assay type: cell-based
Protocol: (1) Human newborn foreskin […] Hs68 cells (ATCC CRL-1635) were cultured in a D-MEM medium (Bio Whittaker) containing 10% fetal calf serum (FBS; Gibco BRL) in the presence of 5% CO2 at 37°C to saturation in a culture vessel. Then, the cells were suspended in the medium at a concentration of 3 x 10^5/ml using a trypsin-EDTA solution (Bio Whittaker). 200 µl of the suspension was dispensed into each well of a 96-well microtiter plate. When the cells were almost saturated in the culture vessel after culturing for 5 days, the medium was discarded and a medium containing 4HCP at a concentration of 40, 100 or 200 µM was added thereto. The culture supernatant was recovered at intervals of 24 hours for up to 96 hours. The effect of 4HCP on enhancement of human insulin-like growth factor-1 (h-IGF-1) production in Hs68 cells was determined using ELISA-Kit for h-IGF-1 (Diagnostic System Labo).
(2) Hs68 cells were cultured in a D-MEM medium containing 10% fetal calf serum in the presence of 5% CO2 at 37°C to saturation in a culture vessel. Then, the cells were suspended in the medium at a concentration of 3 x 10^5/ml using a trypsin-EDTA solution. 200 µl of the suspension was dispensed into each well of a 96-well microtiter plate. When the cells were almost saturated in the culture vessel after culturing for 5 to 7 days, the medium was discarded and the medium containing cyclopentenone or GM at a concentration of 0, 2.5, 5, 10 or 20 µM was added thereto. The culture supernatant was recovered at 1, 3, 6, 12, 24 or 48 hours. The effect of cyclopentenone or GM on the production (enhancement of expression) of h-IGF-1 in Hs68 cells was determined using ELISA-Kit for h-IGF-1. […] The amount of h-IGF-1 produced 6 hours after the addition was about twice the amount for the control with no addition. […] (3) Hs68 cells were cultured in a D-MEM medium containing 10% fetal calf serum in the presence of 5% CO2 at 37°C to saturation in a culture vessel. Then, the cells were suspended in the medium at a concentration of 3 x 10^5/ml using a trypsin-EDTA solution. 200 µl of the suspension was dispensed into each well of a 96-well microtiter plate. When the cells were almost saturated in the culture vessel after culturing for 5 to 7 days, the medium was discarded and the medium containing 4HCP, a compound of formula (XVIII) (4HCP-GSH) or glutathione (GSH) at a concentration of 0, 25, 50, 100 or 200 µM was added thereto. The culture supernatant was recovered at 1, 3, 6, 12, 24 or 48 hours. The effect on the production (enhancement of expression) of h-IGF-1 in Hs68 cells was determined using ELISA-Kit for h-IGF-1. As a result, when 4HCP was added at a concentration of 25 to 200 µM, h-IGF production in Hs68 cells became maximal at 1 hour and decreased thereafter as the time went by. […] Significant enhancement of h-IGF-1 production was observed when cultured for 10 to 30 minutes. […]

[3] = test system: nerve growth factor production by L-M cells; assay: Enhancement of nerve growth factor production in L-M cells (enzyme immunoassay); assay type: cell-based, Rat
Protocol: Rat fibroblast L-M cells (ATCC CCL-1.2) were suspended in a M199 medium (Gibco) containing 0.5% Bacto Peptone (Gibco) at a concentration of 1.0 x 10^5 cells/ml. 1 ml of the suspension was inoculated into each well of a 24-well plate. The cells were cultured aseptically. After culturing for 2 days, the medium was removed and substituted with a M199 medium containing 0.5% bovine serum albumin (Sigma). Then, cyclopentenone (final concentration of 1 to 25 µM), 4HCP (Aldrich) (final concentration of 12.5µM) or dipropionylcyclopentenone (final concentration of 3.1 to 9.4 µM) was added thereto. […]
After completion of the incubation, the concentration of nerve growth factor in the culture was measured by enzyme immunoassay (NGF Emax Immuno Assay System: Promega). […]

[4] = test system: HGF production, MRC-5 cells; assay: Enhancement of HGF production in MRC-5 cells (ELISA); assay type: cell-based, Human; conditions: 24 hours, negative control defined as 100% (7.2 ng/ml)
Protocol: MRC-5 cells (CCL171, Dainippon Pharmaceutical) were suspended in a DME medium (Bio Whittaker) containing 10% fetal calf serum at a concentration of 1 x 10^5 cells/ml. 500 µl of the suspension was placed into a 48-well cell culture plate. After culturing at 37°C in the presence of 5% CO2 for 24 hours, the medium was exchanged for a DME medium containing 1% fetal calf serum. Then, one of samples was added thereto. The plate was incubated for additional 24 hours. The medium was then recovered, and the amount of HGF in the culture medium was measured using Quantikine Human Hepatocyte Growth Factor (HGF) ELISA Kit (Funakoshi). The amount of HGF produced was expressed defining a negative control as 100%. In this case, the amount of HGF produced for the negative control was 7.2 ng/ml. Cyclopentenone (at a final concentration of 20, 40 or 160 µM), GM (at a final concentration of 20, 40, 80 or 160 µM), or dipropionylcyclopentenone (at a final concentration of 32 or 64 µM) was added as a sample. As a negative control, distilled water was added in the same volume as the sample. As a positive control, prostaglandin E1 was added at a final concentration of 0.01, 0.1, 1 or 10 µM.

[5] = single dose orally administered to a mouse at 100 mg/kg
[6] = Example 3-(3): 100 µM, cultivation time 1 hour, control 7.2
[7] = Example 3-(3): 100 µM, cultivation time 3 hour, control 8.9
[8] = Example 3-(3): 100 µM, cultivation time 6 hour, control 6.3
[9] = Example 3-(3): 100 µM, cultivation time 12 hour, control 0
[10] = Example 3-(3): 100 µM, cultivation time 24 hour, control 0
[11] = Example 3-(3): 100 µM, cultivation time 48 hour, control 0
[12] = Example 3-(3): 200 µM, cultivation time 1 hour, control 7.2
[13] = Example 3-(3): 200 µM, cultivation time 3 hour, control 8.9
[14] = Example 3-(3): 200 µM, cultivation time 6 hour, control 6.3
[15] = Example 3-(3): 200 µM, cultivation time 12 hour, control 0
[16] = Example 3-(3): 200 µM, cultivation time 24 hour, control 0
[17] = Example 3-(3): 200 µM, cultivation time 48 hour, control 0

Compound: O=C(OC1C=CC(=O)C1OC(=O)c1ccccc1)c1ccccc1 (stereo not shown)
- death after single oral dose [1, 5]: no example of death was observed

Compound: CC(C)(C)OC1C=CC(=O)C1OC(C)(C)C (stereo not shown) [4,5-di-t-butylcyclopentenone ether]
- death after single oral dose ([1]; mouse, in vivo, po, 100 mg/kg): no example of death was observed

Compound: O=C1C=CC(O)C1 (stereo not shown) [4HCP, 4-hydroxy-2-cyclopenten-1-one]
- Activity of enhancing h-IGF-1 production ([2]; Example 3-(1): 40 µM, cultivation time 24 hour, control 0): 0 ng/mL
- Activity of enhancing h-IGF-1 production ([2]; Example 3-(1): 40 µM, cultivation time 48 hour, control 0): 0 ng/mL
- Activity of enhancing h-IGF-1 production ([2]; Example 3-(1): 40 µM, cultivation time 72 hour, control 0): 0 ng/mL
- Activity of enhancing h-IGF-1 production ([2]; Example 3-(1): 40 µM, cultivation time 96 hour, control 0): 0 ng/mL
- time at which the activity of enhancing h-IGF production in Hs68 cells became maximal ([2]; Example 3-(1): 100 µM or more, sampled at 24, 48, 72, 96 hours): 24 h
- Activity of enhancing h-IGF-1 production ([2]; Example 3-(1): 100 µM, cultivation time 24 hour, control 0): 39.9 ng/mL
- Activity of enhancing h-IGF-1 production ([2]; Example 3-(1): 100 µM, cultivation time 48 hour, control 0): 10.0 ng/mL
- Activity of enhancing h-IGF-1 production ([2]; Example 3-(1): 100 µM, cultivation time 72 hour, control 0): 9.6 ng/mL
- Activity of enhancing h-IGF-1 production ([2]; Example 3-(1): 100 µM, cultivation time 96 hour, control 0): 4.4 ng/mL
- Activity of enhancing h-IGF-1 production ([2]; Example 3-(1): 200 µM, cultivation time 24 hour, control 0): 37.9 ng/mL
- Activity of enhancing h-IGF-1 production ([2]; Example 3-(1): 200 µM, cultivation time 48 hour, control 0): 10.4 ng/mL
- Activity of enhancing h-IGF-1 production ([2]; Example 3-(1): 200 µM, cultivation time 72 hour, control 0): 9.9 ng/mL
- Activity of enhancing h-IGF-1 production ([2]; Example 3-(1): 200 µM, cultivation time 96 hour, control 0): 4.2 ng/mL
- Activity of enhancing IGF-1 production ([2]; Example 3-(3): 25 µM, cultivation time 1 hour, control 7.2): 30.6 ng/mL
- Activity of enhancing IGF-1 production ([2]; Example 3-(3): 25 µM, cultivation time 3 hour, control 8.9): 29.5 ng/mL
- Activity of enhancing IGF-1 production ([2]; Example 3-(3): 25 µM, cultivation time 6 hour, control 6.3): 9.6 ng/mL
- Activity of enhancing IGF-1 production ([2]; Example 3-(3): 25 µM, cultivation time 12 hour, control 0): 0 ng/mL
- Activity of enhancing IGF-1 production ([2]; Example 3-(3): 25 µM, cultivation time 24 hour, control 0): 0 ng/mL
- Activity of enhancing IGF-1 production ([2]; Example 3-(3): 25 µM, cultivation time 48 hour, control 0): 0 ng/mL
- Activity of enhancing IGF-1 production ([2]; Example 3-(3): 50 µM, cultivation time 1 hour, control 7.2): 49.5 ng/mL
- Activity of enhancing IGF-1 production ([2]; Example 3-(3): 50 µM, cultivation time 3 hour, control 8.9): 42.1 ng/mL
- Activity of enhancing IGF-1 production ([2]; Example 3-(3): 50 µM, cultivation time 6 hour, control 6.3): 27.8 ng/mL
- Activity of enhancing IGF-1 production ([2]; Example 3-(3): 50 µM, cultivation time 12 hour, control 0): 0 ng/mL
- Activity of enhancing IGF-1 production ([2]; Example 3-(3): 50 µM, cultivation time 24 hour, control 0): 0 ng/mL
- Activity of enhancing IGF-1 production ([2]; Example 3-(3): 50 µM, cultivation time 48 hour, control 0): 0 ng/mL
- expression of h-IGF-1 (result in words) ([2]; Example 3-(3): 100 µM or more, at 48 hours): expression of h-IGF-1 was observed
- Activity of enhancing IGF-1 production [2, 6]: 52.8 ng/mL
- Activity of enhancing IGF-1 production [2, 7]: 47.2 ng/mL
- Activity of enhancing IGF-1 production [2, 8]: 31 ng/mL
- Activity of enhancing IGF-1 production [2, 9]: 22.1 ng/mL
- Activity of enhancing IGF-1 production [2, 10]: 25.6 ng/mL
- Activity of enhancing IGF-1 production [2, 11]: 32 ng/mL
- Activity of enhancing IGF-1 production [2, 12]: 59.2 ng/mL
- Activity of enhancing IGF-1 production [2, 13]: 51.7 ng/mL
- Activity of enhancing IGF-1 production [2, 14]: 44.4 ng/mL
- Activity of enhancing IGF-1 production [2, 15]: 42.1 ng/mL
- Activity of enhancing IGF-1 production [2, 16]: 50.3 ng/mL
- Activity of enhancing IGF-1 production [2, 17]: 50.2 ng/mL
- time at which h-IGF production in Hs68 cells became maximal ([2]; Example 3-(3): 25 to 200 µM, sampled at 1 to 48 hours): 1 h
- death after single oral dose ([1]; mouse, in vivo, po, 100 mg/kg): no example of death was observed
- Nerve growth factor concentration ([3]; 12.5 µM, 24 hours, 0 µM control 0.138 (Table 2)): 0.327 ng/mL
- production of nerve growth factor by L-M cells (result in words) ([3]; 24 hours incubation): enhanced the production of nerve growth factor by L-M cells in a concentration-dependent manner

Compound: NC(CCC(=O)NC(CSC1CC(=O)CC1O)C(=O)NCC(=O)O)C(=O)O (stereo not shown) [4HCP-GSH]
- Activity of enhancing IGF-1 production [2, 6]: 8.4 ng/mL
- Activity of enhancing IGF-1 production [2, 7]: 12 ng/mL
- Activity of enhancing IGF-1 production [2, 8]: 10.6 ng/mL
- Activity of enhancing IGF-1 production [2, 9]: 6.1 ng/mL
- Activity of enhancing IGF-1 production [2, 10]: 6.7 ng/mL
- Activity of enhancing IGF-1 production [2, 11]: 1.4 ng/mL
- Activity of enhancing IGF-1 production [2, 12]: 33.3 ng/mL
- Activity of enhancing IGF-1 production [2, 13]: 37.9 ng/mL
- Activity of enhancing IGF-1 production [2, 14]: 24.7 ng/mL
- Activity of enhancing IGF-1 production [2, 15]: 20.4 ng/mL
- Activity of enhancing IGF-1 production [2, 16]: 20.9 ng/mL
- Activity of enhancing IGF-1 production [2, 17]: 27.8 ng/mL
- activity of enhancing h-IGF-1 (result in words) ([2]; Example 3-(3): 100 to 200 µM): exhibit an activity of enhancing h-IGF-1 in a concentration-dependent manner

Compound: N[C@@H](CCC(=O)N[C@@H](CSC1C=C(O)C(=O)C1)C(=O)NCC(=O)O)C(=O)O (stereo partly shown) [GM, 2-hydroxy-4-glutathion-S-yl-2-cyclopenten-1-one]
- production of h-IGF-1 in Hs68 cells (result in words) ([2]; Example 3-(2): 10 to 20 µM): production of h-IGF in Hs68 cells was observed 3 hours after the addition
- amount of h-IGF-1 produced relative to the control with no addition ([2]; Example 3-(2): 10 to 20 µM, 6 hours after the addition): about twice
- death after single oral dose ([1]; mouse, in vivo, po, 100 mg/kg): no example of death was observed
- Increase in HGF production ([4]; 20 µM): 154%
- Increase in HGF production ([4]; 40 µM): 179%
- Increase in HGF production ([4]; 80 µM): 243%
- Increase in HGF production ([4]; 160 µM): 319%

Compound: CCCCCC(=O)OC1C=CC(=O)C1OC(=O)CCCCC (stereo not shown) [dihexanoylcyclopentenone]
- death after single oral dose [1, 5]: no example of death was observed

Compound: N[C@@H](CCC(=O)N[C@@H](CS)C(=O)NCC(=O)O)C(=O)O [glutathione, reference compound]
- activity of enhancing h-IGF-1 (result in words) ([2]; Example 3-(3): glutathione alone added, 25 to 200 µM): no significant activity of enhancing h-IGF-1 was observed

Compound: di-2-hexenoylcyclopentenone
- death after single oral dose [1, 5]: no example of death was observed
